From US4725683A, “Fluorophenoxyphenoxypropionates and derivatives thereof” (The Dow Chemical Company, priority 1985, dated 1988)

Key:
Type in all cases: in vivo
Wheat = assay: Postemergent activity; settings: Triticum aestivum, post-emergence, 336 h, read-out: % Control
How it was run: (§1)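 Pots of plants about 10 cm tall sprayed to run-off at 125, 62.5, 31.25, 15.6, 7.8 and 3.9 ppm. Spray: active in acetone mixed with an equal volume of water containing 0.1% TWEEN 200. Growth scored two weeks later on a 0–100 scale (0 no effect, 100 complete kill).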

Wild Oats = assay: Postemergent activity; settings: Avena fatua, post-emergence, 336 h
How it was run: as §1

Barley = assay: Postemergent activity
How it was run: (§2)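 Control is scored on plants treated after emergence, sprayed to the point of run-off when about 10 cm high. The spray mix is acetone solution of the active diluted one-to-one with water containing 0.1% by weight TWEEN 200.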

Blackgrass = assay: Postemergent activity
How it was run: as §2

Cheatgrass = assay: Postemergent activity
How it was run: as §2

Green Foxtail = assay: Postemergent activity
How it was run: as §2

Yellow Foxtail [1] = assay: Postemergent activity
How it was run: as §2

Crabgrass = assay: Selective postemergence, track sprayer
Description: (§3) Representative compositions of the present invention were evaluated for the postemergence control of species of plants listed in Table A. In these evaluations, pots of the plant species listed in Table A, grown to a height of about 10 cms, were used. Aqueous spray compositions, containing various amounts of 2-[4-(2-fluoro-4-trifluoromethylphenoxy)-phenoxy]propionic acid methy ester, i.e., 125 ppm, 62.5 ppm, 31.25 ppm, 15.6 ppm, 7.8 ppm and 3.9 ppm, respectively, were applied to separate pots. The spray compositions were made by mixing the active ingredient in acetone to 1/2 the final volume, i.e., twice the final concentration. An equal amount of water was added to the active ingredient/acetone mixture wherein the water contained 0.1 percent by weight of TWEEN® 200 surfactant. The application to the plants was made to the point of run-off and was carried out with conventional spraying equipment. Other pots were sprayed with similar compositions containing no toxicant to serve as controls. Thereafter, the pots were maintained under conditions conducive for plant growth. Two weeks after treatment, the pots were examined for plant growth and evaluated on a scale of 0 to 100 where 0 represents no effect and 100 represents complete kill. The results of the examination of the treated pots are set forth below in Table A.
(§4) To further define the selective postemergence herbicidal characteristics of compounds of the present invention, chemicals were applied to additional species of grasses as listed in Table F. Chemicals evaluated were 2-[4-(4-bromo-2-fluorophenoxy)phenoxy]propionic acid methyl ester and its R isomer. Treatment conditions were similar to those described in Example A except that chemicals were delivered through a track sprayer set to deliver the appropriate dosages in 280.6 L/hectare of water containing 0.1% Tween-20 surfactant.

Johnsongrass = assay: Selective postemergence, track sprayer
Description: as §3, §4

Sprangletop = assay: Selective postemergence, track sprayer
Description: as §3, §4

Yellow Foxtail [2] = assay: Selective postemergence, track sprayer
Description: as §3, §4

COC(=O)[C@@H](C)Oc1ccc(Oc2ccc(Br)cc2F)cc1 [4-Bromo-(R-Enantiomer), R enantiomer of 2-[4-(4-bromo-2-fluorophenoxy)phenoxy]propionic acid methyl ester]
95%: % Control (Barley; 62.5 ppm)
90%: pest or weed control at 15.6 ppm (Wild Oats; 15.6 ppm, read-out: % Control) | pest or weed control at 31.25 ppm (Wild Oats; 31.25 ppm, read-out: % Control) | % Control (Barley; 125 ppm) | % Control (Blackgrass; 1.5 ppm) | % Control (Blackgrass; 3.1 ppm) | Percent Control (Crabgrass; 0.009 kgs/hectare) | Percent Control (Crabgrass; 0.018 kgs/hectare) | Percent Control (Yellow Foxtail [2]; 0.018 kgs/hectare)
70%: plant injury at 125 ppm (Wheat; 125 ppm) | Percent Control (Crabgrass; 0.035 kgs/hectare) | Percent Control (Johnsongrass; 0.28 kgs/hectare)
0%: plant injury at 1.9 ppm (Wheat; 1.9 ppm) | plant injury at 3.9 ppm (Wheat; 3.9 ppm) | plant injury at 7.8 ppm (Wheat; 7.8 ppm) | plant injury at 15.6 ppm (Wheat; 15.6 ppm) | plant injury at 31.25 ppm (Wheat; 31.25 ppm) | plant injury at 62.5 ppm (Wheat; 62.5 ppm) | % Control (Barley; 1.9 ppm) | % Control (Barley; 3.9 ppm) | % Control (Barley; 7.8 ppm) | % Control (Barley; 15.6 ppm) | % Control (Barley; 31.25 ppm) | % Control (Blackgrass; 0.1 ppm) | % Control (Blackgrass; 0.2 ppm) | % Control (Cheatgrass; 0.1 ppm) | % Control (Cheatgrass; 0.2 ppm) | % Control (Cheatgrass; 0.4 ppm) | % Control (Cheatgrass; 0.8 ppm) | % Control (Cheatgrass; 1.5 ppm) | % Control (Cheatgrass; 3.1 ppm) | % Control (Cheatgrass; 6.3 ppm) | % Control (Cheatgrass; 12.5 ppm) | % Control (Green Foxtail; 0.1 ppm) | % Control (Yellow Foxtail [1]; 0.1 ppm) | % Control (Yellow Foxtail [1]; 0.2 ppm) | % Control (Yellow Foxtail [1]; 0.4 ppm) | Percent Control (Crabgrass; 0.00055 kgs/hectare) | Percent Control (Crabgrass; 0.0011 kgs/hectare) | Percent Control (Crabgrass; 0.0023 kgs/hectare) | Percent Control (Johnsongrass; 0.00055 kgs/hectare) | Percent Control (Johnsongrass; 0.0011 kgs/hectare) | Percent Control (Johnsongrass; 0.0023 kgs/hectare) | Percent Control (Johnsongrass; 0.0045 kgs/hectare) | Percent Control (Johnsongrass; 0.009 kgs/hectare) | Percent Control (Johnsongrass; 0.018 kgs/hectare) | Percent Control (Johnsongrass; 0.035 kgs/hectare) | Percent Control (Sprangletop; 0.00055 kgs/hectare) | Percent Control (Yellow Foxtail [2]; 0.00055 kgs/hectare) | Percent Control (Yellow Foxtail [2]; 0.0011 kgs/hectare)
40%: Percent Control (Johnsongrass; 0.14 kgs/hectare)
60%: pest or weed control at 1.9 ppm (Wild Oats; 1.9 ppm) | % Control (Blackgrass; 0.8 ppm) | % Control (Yellow Foxtail [1]; 1.5 ppm)
20%: % Control (Yellow Foxtail [1]; 0.8 ppm) | Percent Control (Johnsongrass; 0.07 kgs/hectare) | Percent Control (Sprangletop; 0.0011 kgs/hectare) | Percent Control (Yellow Foxtail [2]; 0.0023 kgs/hectare) | Percent Control (Yellow Foxtail [2]; 0.0045 kgs/hectare)
80%: pest or weed control at 3.9 ppm (Wild Oats; 3.9 ppm) | pest or weed control at 7.8 ppm (Wild Oats; 7.8 ppm, read-out: % Control)
50%: % Control (Blackgrass; 0.4 ppm) | % Control (Green Foxtail; 0.2 ppm) | Percent Control (Crabgrass; 0.0045 kgs/hectare) | Percent Control (Yellow Foxtail [2]; 0.009 kgs/hectare)
100%: plant injury at 250 ppm (Wheat; 250 ppm) | pest or weed control at 62.5 ppm (Wild Oats; 62.5 ppm, read-out: % Control) | pest or weed control at 125 ppm (Wild Oats; 125 ppm, read-out: % Control) | pest or weed control at 250 ppm (Wild Oats; 250 ppm, read-out: % Control) | % Control (Barley; 250 ppm) | % Control (Blackgrass; 6.3 ppm) | % Control (Blackgrass; 12.5 ppm) | % Control (Green Foxtail; 0.4 ppm) | % Control (Green Foxtail; 0.8 ppm) | % Control (Green Foxtail; 1.5 ppm) | % Control (Green Foxtail; 3.1 ppm) | % Control (Green Foxtail; 6.3 ppm) | % Control (Green Foxtail; 12.5 ppm) | % Control (Yellow Foxtail [1]; 3.1 ppm) | % Control (Yellow Foxtail [1]; 6.3 ppm) | % Control (Yellow Foxtail [1]; 12.5 ppm) | Percent Control (Crabgrass; 0.07 kgs/hectare) | Percent Control (Crabgrass; 0.14 kgs/hectare) | Percent Control (Crabgrass; 0.28 kgs/hectare) | Percent Control (Sprangletop; 0.0023 kgs/hectare) | Percent Control (Sprangletop; 0.0045 kgs/hectare) | Percent Control (Sprangletop; 0.009 kgs/hectare) | Percent Control (Sprangletop; 0.018 kgs/hectare) | Percent Control (Sprangletop; 0.035 kgs/hectare) | Percent Control (Sprangletop; 0.07 kgs/hectare) | Percent Control (Sprangletop; 0.14 kgs/hectare) | Percent Control (Sprangletop; 0.28 kgs/hectare) | Percent Control (Yellow Foxtail [2]; 0.035 kgs/hectare) | Percent Control (Yellow Foxtail [2]; 0.07 kgs/hectare) | Percent Control (Yellow Foxtail [2]; 0.14 kgs/hectare) | Percent Control (Yellow Foxtail [2]; 0.28 kgs/hectare)
